Test results taken from ChEMBL document CHEMBL1201862, “PubChem BioAssay data set” (2004).
The source made the active and inactive calls.

Experiments:
Format in all cases: functional
[1] = biological target: T1, Serine/threonine-protein kinase Nek2 (Homo sapiens, UniProt P51955)
T1 sequence (P51955 whole entry): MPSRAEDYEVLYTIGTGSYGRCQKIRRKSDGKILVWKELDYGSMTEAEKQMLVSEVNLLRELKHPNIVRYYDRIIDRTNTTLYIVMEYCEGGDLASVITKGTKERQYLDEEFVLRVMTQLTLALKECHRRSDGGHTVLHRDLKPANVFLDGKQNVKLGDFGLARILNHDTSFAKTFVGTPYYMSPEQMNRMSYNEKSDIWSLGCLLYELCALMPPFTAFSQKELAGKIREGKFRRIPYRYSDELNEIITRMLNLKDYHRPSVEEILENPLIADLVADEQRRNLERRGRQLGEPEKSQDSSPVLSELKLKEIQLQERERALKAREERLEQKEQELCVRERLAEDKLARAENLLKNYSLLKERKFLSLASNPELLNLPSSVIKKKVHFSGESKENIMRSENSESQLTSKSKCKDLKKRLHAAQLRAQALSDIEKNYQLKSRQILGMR

[2] = biological target: ALK tyrosine kinase receptor (Homo sapiens, UniProt Q9UM73);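 note: ALK tested as one member of a kinase panel screen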
[3] = biological target: T2, Serine/threonine-protein kinase Chk1 (Homo sapiens, UniProt O14757);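 note: measured as one member of a kinome-wide kinase profiling panel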
T2 sequence (O14757 whole entry): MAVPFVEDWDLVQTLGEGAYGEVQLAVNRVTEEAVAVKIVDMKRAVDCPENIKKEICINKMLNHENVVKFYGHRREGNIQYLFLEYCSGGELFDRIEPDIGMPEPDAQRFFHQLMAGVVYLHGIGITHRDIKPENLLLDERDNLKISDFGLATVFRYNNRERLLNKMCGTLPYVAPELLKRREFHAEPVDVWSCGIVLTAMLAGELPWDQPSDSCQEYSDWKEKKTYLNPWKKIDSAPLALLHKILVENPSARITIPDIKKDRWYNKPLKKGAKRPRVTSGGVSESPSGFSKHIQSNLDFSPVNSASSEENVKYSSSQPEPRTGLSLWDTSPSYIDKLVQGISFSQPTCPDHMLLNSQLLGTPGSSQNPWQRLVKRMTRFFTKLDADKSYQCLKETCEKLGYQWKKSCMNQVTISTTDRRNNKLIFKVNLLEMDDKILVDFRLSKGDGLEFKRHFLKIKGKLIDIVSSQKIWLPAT

[4] = biological target: 5'-AMP-activated protein kinase catalytic subunit alpha-1 (Homo sapiens, UniProt Q13131)
[5] = biological target: Macrophage-stimulating protein receptor (Homo sapiens, UniProt Q04912); experiment: Navigating the Kinome. Panel member name: MST1R
[6] = biological target: Rho-associated protein kinase 1 (Homo sapiens, UniProt Q13464);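 note: measured within a broad kinome-wide panel profiling many kinases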
[7] = biological target: Activated CDC42 kinase 1 (Homo sapiens, UniProt Q07912); experiment: Navigating the Kinome. Panel member name: ACK1
[8] = biological target: T3, cAMP-dependent protein kinase catalytic subunit PRKX (Homo sapiens, UniProt P51817)
T3 sequence (P51817 whole entry): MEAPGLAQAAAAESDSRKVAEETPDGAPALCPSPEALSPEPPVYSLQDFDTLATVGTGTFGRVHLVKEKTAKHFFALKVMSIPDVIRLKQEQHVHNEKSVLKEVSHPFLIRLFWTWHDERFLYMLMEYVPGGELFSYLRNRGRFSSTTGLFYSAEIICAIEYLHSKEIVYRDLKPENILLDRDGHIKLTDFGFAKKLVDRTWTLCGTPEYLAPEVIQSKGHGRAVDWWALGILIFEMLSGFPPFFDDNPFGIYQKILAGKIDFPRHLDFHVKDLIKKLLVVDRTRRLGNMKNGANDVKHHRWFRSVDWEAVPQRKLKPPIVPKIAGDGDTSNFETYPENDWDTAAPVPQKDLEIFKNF

[9] = biological target: Dual specificity tyrosine-phosphorylation-regulated kinase 1A (Homo sapiens, UniProt Q13627);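 note: measured against DYRK1A as one member of a broad kinome profiling panel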
[10] = biological target: Serine/threonine-protein kinase pim-1 (Homo sapiens, UniProt P11309)
[11] = biological target: Dual specificity mitogen-activated protein kinase kinase 1 (Homo sapiens, UniProt Q02750); experiment: Navigating the Kinome. Panel member name: MAP2K1
[12] = biological target: Vascular endothelial growth factor receptor 1 (Homo sapiens, UniProt P17948);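 note: measured within a kinome-wide profiling panel, FLT1 as the panel member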
[13] = biological target: T4, Tyrosine-protein kinase receptor TYRO3 (Homo sapiens, UniProt Q06418);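 note: TYRO3 value obtained as one member of a kinome-wide profiling panel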
T4 sequence (Q06418 whole entry): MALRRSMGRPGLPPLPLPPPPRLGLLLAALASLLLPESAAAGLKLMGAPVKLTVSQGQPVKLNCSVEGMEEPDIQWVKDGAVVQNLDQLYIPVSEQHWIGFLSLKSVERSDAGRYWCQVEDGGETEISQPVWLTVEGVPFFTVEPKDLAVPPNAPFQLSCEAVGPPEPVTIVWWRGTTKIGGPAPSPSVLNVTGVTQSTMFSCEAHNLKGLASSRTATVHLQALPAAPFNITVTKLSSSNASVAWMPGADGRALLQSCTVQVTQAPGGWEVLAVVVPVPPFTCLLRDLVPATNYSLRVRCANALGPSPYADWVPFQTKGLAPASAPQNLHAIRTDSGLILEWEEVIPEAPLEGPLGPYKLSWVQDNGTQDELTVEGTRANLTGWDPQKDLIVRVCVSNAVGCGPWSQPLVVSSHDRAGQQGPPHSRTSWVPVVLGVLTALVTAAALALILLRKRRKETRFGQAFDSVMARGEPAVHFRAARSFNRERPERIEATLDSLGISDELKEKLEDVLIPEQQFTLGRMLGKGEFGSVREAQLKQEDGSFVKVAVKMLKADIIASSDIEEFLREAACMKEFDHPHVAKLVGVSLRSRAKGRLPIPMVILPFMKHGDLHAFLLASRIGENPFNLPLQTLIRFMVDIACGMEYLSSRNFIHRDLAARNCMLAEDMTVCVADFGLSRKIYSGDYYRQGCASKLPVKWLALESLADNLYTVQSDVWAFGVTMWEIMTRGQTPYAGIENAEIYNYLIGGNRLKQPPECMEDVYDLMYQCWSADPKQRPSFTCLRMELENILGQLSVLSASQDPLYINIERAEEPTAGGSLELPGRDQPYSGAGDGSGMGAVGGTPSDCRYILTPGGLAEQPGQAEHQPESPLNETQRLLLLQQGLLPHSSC

Sequence of Macrophage-stimulating protein receptor (Q04912 25-304 limits assumed): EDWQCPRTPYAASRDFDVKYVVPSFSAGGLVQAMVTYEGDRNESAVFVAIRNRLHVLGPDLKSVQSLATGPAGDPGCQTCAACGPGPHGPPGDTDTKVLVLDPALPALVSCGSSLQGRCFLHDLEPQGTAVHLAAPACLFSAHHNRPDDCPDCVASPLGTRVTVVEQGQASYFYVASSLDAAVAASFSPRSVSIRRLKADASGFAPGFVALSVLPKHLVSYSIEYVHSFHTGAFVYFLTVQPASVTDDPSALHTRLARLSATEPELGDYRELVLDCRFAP
Sequence of Macrophage-stimulating protein receptor (Q04912 310-1400 limits assumed): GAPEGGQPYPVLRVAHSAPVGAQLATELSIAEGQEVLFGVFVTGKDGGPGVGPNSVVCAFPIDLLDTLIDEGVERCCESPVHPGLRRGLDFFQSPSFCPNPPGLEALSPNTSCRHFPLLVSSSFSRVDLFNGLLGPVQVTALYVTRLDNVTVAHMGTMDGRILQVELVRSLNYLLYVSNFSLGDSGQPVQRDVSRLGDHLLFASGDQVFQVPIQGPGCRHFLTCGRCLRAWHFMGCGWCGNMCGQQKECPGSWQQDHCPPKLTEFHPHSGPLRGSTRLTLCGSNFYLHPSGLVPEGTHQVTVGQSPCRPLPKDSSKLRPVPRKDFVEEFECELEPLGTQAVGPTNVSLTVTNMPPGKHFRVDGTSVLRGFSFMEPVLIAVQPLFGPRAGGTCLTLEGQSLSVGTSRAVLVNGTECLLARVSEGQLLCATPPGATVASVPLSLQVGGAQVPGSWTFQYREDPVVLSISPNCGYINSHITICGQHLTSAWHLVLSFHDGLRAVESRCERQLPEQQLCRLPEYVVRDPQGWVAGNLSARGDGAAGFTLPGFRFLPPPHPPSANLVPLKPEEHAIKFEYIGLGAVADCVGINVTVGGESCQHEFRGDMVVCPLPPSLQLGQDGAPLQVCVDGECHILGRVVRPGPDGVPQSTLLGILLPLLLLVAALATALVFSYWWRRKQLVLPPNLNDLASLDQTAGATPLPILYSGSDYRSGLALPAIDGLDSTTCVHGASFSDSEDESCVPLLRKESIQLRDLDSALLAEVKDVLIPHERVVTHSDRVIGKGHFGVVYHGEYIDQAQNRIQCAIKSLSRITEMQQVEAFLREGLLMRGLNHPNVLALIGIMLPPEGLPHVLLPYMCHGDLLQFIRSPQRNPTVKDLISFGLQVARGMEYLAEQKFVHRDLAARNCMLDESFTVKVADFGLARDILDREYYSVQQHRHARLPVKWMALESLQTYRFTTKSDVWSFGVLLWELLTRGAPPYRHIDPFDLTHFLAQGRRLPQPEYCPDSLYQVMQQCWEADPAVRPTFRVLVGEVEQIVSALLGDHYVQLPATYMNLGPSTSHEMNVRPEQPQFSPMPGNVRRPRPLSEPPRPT
Sequence of 5'-AMP-activated protein kinase catalytic subunit alpha-1 (Q13131 whole entry): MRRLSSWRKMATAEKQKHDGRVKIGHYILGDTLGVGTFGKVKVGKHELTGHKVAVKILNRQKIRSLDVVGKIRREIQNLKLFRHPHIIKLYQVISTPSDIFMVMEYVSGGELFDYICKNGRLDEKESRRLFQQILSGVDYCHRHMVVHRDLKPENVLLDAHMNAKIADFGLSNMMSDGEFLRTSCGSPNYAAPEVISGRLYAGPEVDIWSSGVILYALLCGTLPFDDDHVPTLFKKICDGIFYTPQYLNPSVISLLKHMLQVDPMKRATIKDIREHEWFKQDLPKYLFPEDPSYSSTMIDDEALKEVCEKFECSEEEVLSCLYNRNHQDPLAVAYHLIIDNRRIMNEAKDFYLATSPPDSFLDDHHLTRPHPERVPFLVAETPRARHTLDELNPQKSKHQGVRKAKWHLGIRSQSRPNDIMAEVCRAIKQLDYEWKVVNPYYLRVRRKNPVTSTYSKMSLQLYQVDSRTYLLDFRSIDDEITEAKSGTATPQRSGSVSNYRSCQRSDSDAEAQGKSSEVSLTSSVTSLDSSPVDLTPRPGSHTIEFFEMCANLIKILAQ
Sequence of Vascular endothelial growth factor receptor 1 (P17948 whole entry): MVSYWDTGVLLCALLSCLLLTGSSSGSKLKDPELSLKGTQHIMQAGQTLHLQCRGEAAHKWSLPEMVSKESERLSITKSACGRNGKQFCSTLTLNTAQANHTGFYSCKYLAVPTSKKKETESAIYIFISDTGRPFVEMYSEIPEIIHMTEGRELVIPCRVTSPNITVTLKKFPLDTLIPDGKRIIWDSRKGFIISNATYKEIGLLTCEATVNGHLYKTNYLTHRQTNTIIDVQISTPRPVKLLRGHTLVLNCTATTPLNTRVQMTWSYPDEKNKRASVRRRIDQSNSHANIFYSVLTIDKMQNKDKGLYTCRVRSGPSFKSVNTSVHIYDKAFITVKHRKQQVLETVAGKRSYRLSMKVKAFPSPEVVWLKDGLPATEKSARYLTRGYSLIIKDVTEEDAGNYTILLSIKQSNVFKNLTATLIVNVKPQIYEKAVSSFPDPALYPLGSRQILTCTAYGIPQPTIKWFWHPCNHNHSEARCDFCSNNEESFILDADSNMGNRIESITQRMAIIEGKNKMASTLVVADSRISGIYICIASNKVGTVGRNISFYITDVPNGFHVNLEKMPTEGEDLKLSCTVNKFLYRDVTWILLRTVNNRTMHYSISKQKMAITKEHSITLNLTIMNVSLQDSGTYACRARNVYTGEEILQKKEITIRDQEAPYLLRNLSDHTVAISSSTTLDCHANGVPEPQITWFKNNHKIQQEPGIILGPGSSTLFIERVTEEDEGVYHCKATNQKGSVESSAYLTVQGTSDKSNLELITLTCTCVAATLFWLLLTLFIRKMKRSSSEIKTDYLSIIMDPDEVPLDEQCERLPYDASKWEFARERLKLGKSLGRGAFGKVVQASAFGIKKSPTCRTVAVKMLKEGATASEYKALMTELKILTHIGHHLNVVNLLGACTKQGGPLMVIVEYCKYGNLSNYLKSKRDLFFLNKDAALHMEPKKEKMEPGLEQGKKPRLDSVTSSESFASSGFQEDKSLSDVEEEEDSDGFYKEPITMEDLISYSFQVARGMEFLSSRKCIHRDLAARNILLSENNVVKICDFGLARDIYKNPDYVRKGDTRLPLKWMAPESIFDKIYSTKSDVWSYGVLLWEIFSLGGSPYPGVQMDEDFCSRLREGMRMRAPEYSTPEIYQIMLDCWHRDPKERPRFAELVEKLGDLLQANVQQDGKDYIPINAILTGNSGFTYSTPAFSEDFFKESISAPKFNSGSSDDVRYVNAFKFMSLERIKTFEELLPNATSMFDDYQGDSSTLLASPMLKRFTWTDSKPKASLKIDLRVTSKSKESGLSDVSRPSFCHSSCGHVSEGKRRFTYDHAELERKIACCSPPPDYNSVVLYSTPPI
Sequence of Activated CDC42 kinase 1 (Q07912 whole entry): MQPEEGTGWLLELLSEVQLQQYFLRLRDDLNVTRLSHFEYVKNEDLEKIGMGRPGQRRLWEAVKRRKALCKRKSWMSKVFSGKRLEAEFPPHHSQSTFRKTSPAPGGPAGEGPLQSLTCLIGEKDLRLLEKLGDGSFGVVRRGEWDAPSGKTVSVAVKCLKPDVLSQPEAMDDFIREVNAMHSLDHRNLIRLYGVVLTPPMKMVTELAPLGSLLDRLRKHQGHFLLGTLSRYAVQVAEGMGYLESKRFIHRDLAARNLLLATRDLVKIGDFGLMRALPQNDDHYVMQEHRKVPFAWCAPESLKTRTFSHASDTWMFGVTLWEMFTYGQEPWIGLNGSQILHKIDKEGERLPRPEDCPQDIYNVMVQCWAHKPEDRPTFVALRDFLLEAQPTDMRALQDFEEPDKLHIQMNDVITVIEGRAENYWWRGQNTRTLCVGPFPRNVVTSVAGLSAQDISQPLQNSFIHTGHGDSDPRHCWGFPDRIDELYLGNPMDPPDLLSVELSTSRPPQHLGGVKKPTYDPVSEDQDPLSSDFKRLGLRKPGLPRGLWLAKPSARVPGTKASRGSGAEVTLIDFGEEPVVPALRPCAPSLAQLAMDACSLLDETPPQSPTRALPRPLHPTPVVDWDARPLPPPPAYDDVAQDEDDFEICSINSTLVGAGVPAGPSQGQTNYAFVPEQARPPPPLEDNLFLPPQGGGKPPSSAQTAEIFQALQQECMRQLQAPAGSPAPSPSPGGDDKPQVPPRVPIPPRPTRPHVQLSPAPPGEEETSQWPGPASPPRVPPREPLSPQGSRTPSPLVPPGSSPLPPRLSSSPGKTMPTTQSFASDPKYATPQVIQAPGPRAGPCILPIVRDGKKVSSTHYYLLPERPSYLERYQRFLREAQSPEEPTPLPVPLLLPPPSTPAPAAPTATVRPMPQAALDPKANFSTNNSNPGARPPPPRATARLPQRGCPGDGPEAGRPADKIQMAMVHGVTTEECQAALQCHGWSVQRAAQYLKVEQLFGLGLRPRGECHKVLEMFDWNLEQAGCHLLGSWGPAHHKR
Sequence of Serine/threonine-protein kinase pim-1 (P11309 whole entry): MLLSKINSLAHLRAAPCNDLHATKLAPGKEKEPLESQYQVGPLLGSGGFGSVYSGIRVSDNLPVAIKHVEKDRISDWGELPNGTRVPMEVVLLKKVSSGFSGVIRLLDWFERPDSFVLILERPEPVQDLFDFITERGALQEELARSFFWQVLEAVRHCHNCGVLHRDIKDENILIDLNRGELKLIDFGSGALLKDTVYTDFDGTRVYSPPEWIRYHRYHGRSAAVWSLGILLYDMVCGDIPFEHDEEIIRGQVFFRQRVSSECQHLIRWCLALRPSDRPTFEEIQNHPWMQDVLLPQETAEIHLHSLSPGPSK
Sequence of Dual specificity mitogen-activated protein kinase kinase 1 (Q02750 whole entry): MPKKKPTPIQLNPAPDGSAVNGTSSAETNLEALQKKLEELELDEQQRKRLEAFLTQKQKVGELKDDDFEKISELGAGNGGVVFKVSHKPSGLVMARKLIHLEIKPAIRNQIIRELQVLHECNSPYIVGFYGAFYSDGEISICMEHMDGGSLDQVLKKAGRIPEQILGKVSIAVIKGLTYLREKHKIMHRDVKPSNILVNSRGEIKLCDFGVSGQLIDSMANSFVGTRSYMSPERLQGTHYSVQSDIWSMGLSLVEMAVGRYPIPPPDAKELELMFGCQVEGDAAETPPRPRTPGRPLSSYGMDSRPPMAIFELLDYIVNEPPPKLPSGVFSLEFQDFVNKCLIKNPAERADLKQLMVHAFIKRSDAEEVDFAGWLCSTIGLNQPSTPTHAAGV

Compound | Ki [1] | Ki [2] | Ki [3] | Ki [4] | Ki [5] | Ki [6] | Ki [7] | Ki [8] | Ki [9] | Ki [10] | Ki [11] | Ki [12] | Ki [13] | pKi [2]
Cc1ccc(C)c(NC(=O)c2cc(-c3ccco3)nc3ccccc23)c1 | 1260 nM (active) | > 6310 nM (inactive) | 316 nM (active) | 2000 nM (active) | 3980 nM (active) | > 3980 nM (inactive) | > 3980 nM (inactive) | 1000 nM (active) | 631 nM (active) | 1260 nM (active) | > 3160 nM (inactive) | 3160 nM (active) | 316 nM (active) | 
COc1ccc(C2=NNc3cccc4c(OC)ccc2c34)cc1OC | 200 nM (active) | 1580 nM (active) | 31.6 nM (active) | 794 nM (active) | 501 nM (active) | 501 nM (active) | 1260 nM (active) | 398 nM (active) | 79.4 nM (active) | > 6310 nM (inactive) | > 3160 nM (inactive) | 316 nM (active) | 1000 nM (active) | 
CN1CCC(c2c(O)cc(O)c3c(=O)cc(-c4ccccc4Cl)oc23)C(O)C1 (stereo not given) | > 6310 nM (inactive) | 631 nM (active) | > 6310 nM (inactive) | > 2510 nM (inactive) | > 3980 nM (inactive) | > 6310 nM (inactive) | > 3980 nM (inactive) | > 3160 nM (inactive) | 794 nM (active) | 794 nM (active) | > 3160 nM (inactive) | > 2000 nM (inactive) | > 2510 nM (inactive) | 6.2
